Results from patent publication US20260008818A1, “CYCLIC PEPTIDE OR SALT THEREOF, AND USES THEREOF” (FUJIFILM Corporation, priority 2023, published 2026).
Bridge positions count the residues as written; N and C are the ends. Ends that are not written are not given here. COCH2 = acetyl group that carries the bridge

System: Recombinant Human FGFR1 alpha (IIIc) Fc Chimera Protein
Assay: Binding affinity of enzymatically synthesized cyclic peptide to FGFR by ELISA
Settings: luminescence signal at reaction concentration 10 nmol/L, SEQ ID NO: 39 standardized to 1, enzyme synthesis product
Description: The binding affinity of the cyclic peptide to FGFR was evaluated using an ELISA method.
The binding affinity of the enzymatically synthesized cyclic peptide to FGFR was measured by evaluating the amount of the cyclic peptide bound to FGFR by ELISA.
First, 5 ng of Recombinant Human FGFR1 alpha (IIIc) Fc Chimera Protein CF (R&D systems, 658-FR-050) was immobilized in each well of a 96-well plate, and blocked with Pierce Protein-Free (PBS) Blocking Buffer (Thermo, 37572), and a cyclic peptide diluted with Can Get Signal Immunoreaction Enhancer Solution I (TOYOBO, NKB-101) was then added and reacted at room temperature for 3 hours. After washing with 0.05% Tween 20-containing phosphate buffered saline (PBS), an anti-Myc antibody (Cell Signaling, 14038S) diluted with Can Get Signal Immunoreaction Enhancer Solution II (TOYOBO, NKB-101) was added and reacted at room temperature for 2 hours. After washing with 0.05% Tween 20-containing PBS, SuperSignal ELISA Femto Substrate (Thermo, 37075) was added, and the luminescence amount was measured. The dose-response relationship was calculated from using the difference between the luminescence amount in the well in which FGFR was immobilized and the luminescence amount in the well in which FGFR was not immobilized, and the concentration of the cyclic peptide at the time of reaction, and the binding affinity to FGFR was evaluated according to the following evaluation criteria. The evaluation result preferably satisfies the evaluation criteria A, B, or C.
In a case where a value of a luminescence signal emitted by the cyclic peptide set forth in SEQ ID NO: 39 at a reaction concentration of 10 nmol/L is standardized to 1, evaluation criteria of the luminescence signal value emitted by the cyclic peptide at a reaction concentration of 10 nmol/L is as follows. • A: 0.7 or more • B: 0.5 or more and less than 0.7 • C: 0.1 or more and less than 0.5 • D: less than 0.1.

Evaluation result of binding affinity to FGFR | Substance
A (0.7 or more) | 121 (HCSYPRLQFHGHEAPFRVK(COCH2)V; thioether 2-19 (inferred)) [compound 121]
C (0.1 or more and less than 0.5) | 122 (HCSYLRLQFHGHEAPFRVK(COCH2)V; thioether 2-19 (inferred)) [compound 122]
B (0.5 or more and less than 0.7) | 123 (HCSYIRLQFHGHEAPFRVK(COCH2)V; thioether 2-19 (inferred)) [compound 123]
B (0.5 or more and less than 0.7) | 124 (HCSYVRLQFHGHEAPFRVK(COCH2)V; thioether 2-19 (inferred)) [compound 124]
C (0.1 or more and less than 0.5) | 125 (HCSYFRLQFHGHEAPFRVK(COCH2)V; thioether 2-19 (inferred)) [compound 125]
B (0.5 or more and less than 0.7) | 126 (HCSYYRLQFHGHEAPFRVK(COCH2)V; thioether 2-19 (inferred)) [compound 126]
A (0.7 or more) | 127 (HCSYWRLQFHGHEAPFRVK(COCH2)V; thioether 2-19 (inferred)) [compound 127]
B (0.5 or more and less than 0.7) | 128 (HCSYNRLQFHGHEAPFRVK(COCH2)V; thioether 2-19 (inferred)) [compound 128]
A (0.7 or more) | 129 (HCSYQRLQFHGHEAPFRVK(COCH2)V; thioether 2-19 (inferred)) [compound 129]
B (0.5 or more and less than 0.7) | 130 (HCSYSRLQFHGHEAPFRVK(COCH2)V; thioether 2-19 (inferred)) [compound 130]
A (0.7 or more) | 131 (HCSYTRLQFHGHEAPFRVK(COCH2)V; thioether 2-19 (inferred)) [compound 131]
B (0.5 or more and less than 0.7) | 132 (HCSYDRLQFHGHEAPFRVK(COCH2)V; thioether 2-19 (inferred)) [compound 132]
B (0.5 or more and less than 0.7) | 133 (HCSYRRLQFHGHEAPFRVK(COCH2)V; thioether 2-19 (inferred)) [compound 133]
A (0.7 or more) | 134 (HCSYHRLQFHGHEAPFRVK(COCH2)V; thioether 2-19 (inferred)) [compound 134]
C (0.1 or more and less than 0.5) | 135 (HCSYEPLQFHGHEAPFRVK(COCH2)V; thioether 2-19 (inferred)) [compound 135]
C (0.1 or more and less than 0.5) | 136 (HCSYELLQFHGHEAPFRVK(COCH2)V; thioether 2-19 (inferred)) [compound 136]
A (0.7 or more) | 137 (HCSYEILQFHGHEAPFRVK(COCH2)V; thioether 2-19 (inferred)) [compound 137]
A (0.7 or more) | 138 (HCSYEVLQFHGHEAPFRVK(COCH2)V; thioether 2-19 (inferred)) [compound 138]
B (0.5 or more and less than 0.7) | 139 (HCSYEQLQFHGHEAPFRVK(COCH2)V; thioether 2-19 (inferred)) [compound 139]
C (0.1 or more and less than 0.5) | 140 (HCSYETLQFHGHEAPFRVK(COCH2)V; thioether 2-19 (inferred)) [compound 140]
C (0.1 or more and less than 0.5) | 141 (HCSYEHLQFHGHEAPFRVK(COCH2)V; thioether 2-19 (inferred)) [compound 141]
C (0.1 or more and less than 0.5) | 142 (HCSYERFQFHGHEAPFRVK(COCH2)V; thioether 2-19 (inferred)) [compound 142]
B (0.5 or more and less than 0.7) | 143 (HCSYERYQFHGHEAPFRVK(COCH2)V; thioether 2-19 (inferred)) [compound 143]
A (0.7 or more) | 144 (HCSYERHQFHGHEAPFRVK(COCH2)V; thioether 2-19 (inferred)) [compound 144]
C (0.1 or more and less than 0.5) | 145 (HCSYERLGFHGHEAPFRVK(COCH2)V; thioether 2-19 (inferred)) [compound 145]
A (0.7 or more) | 146 (HCSYERLLFHGHEAPFRVK(COCH2)V; thioether 2-19 (inferred)) [compound 146]

Evaluation result of binding affinity to FGFR | Substance
A (0.7 or more) | 147 (HCSYERLIFHGHEAPFRVK(COCH2)V; thioether 2-19 (inferred)) [compound 147]
A (0.7 or more) | 148 (HCSYERLVFHGHEAPFRVK(COCH2)V; thioether 2-19 (inferred)) [compound 148]
A (0.7 or more) | 149 (HCSYERLFFHGHEAPFRVK(COCH2)V; thioether 2-19 (inferred)) [compound 149]
A (0.7 or more) | 150 (HCSYERLYFHGHEAPFRVK(COCH2)V; thioether 2-19 (inferred)) [compound 150]
A (0.7 or more) | 151 (HCSYERLWFHGHEAPFRVK(COCH2)V; thioether 2-19 (inferred)) [compound 151]
A (0.7 or more) | 152 (HCSYERLNFHGHEAPFRVK(COCH2)V; thioether 2-19 (inferred)) [compound 152]
A (0.7 or more) | 153 (HCSYERLSFHGHEAPFRVK(COCH2)V; thioether 2-19 (inferred)) [compound 153]
A (0.7 or more) | 154 (HCSYERLTFHGHEAPFRVK(COCH2)V; thioether 2-19 (inferred)) [compound 154]
A (0.7 or more) | 155 (HCSYERLEFHGHEAPFRVK(COCH2)V; thioether 2-19 (inferred)) [compound 155]
A (0.7 or more) | 156 (HCSYERLRFHGHEAPFRVK(COCH2)V; thioether 2-19 (inferred)) [compound 156]
A (0.7 or more) | 157 (HCSYERLHFHGHEAPFRVK(COCH2)V; thioether 2-19 (inferred)) [compound 157]
B (0.5 or more and less than 0.7) | 158 (HCSYERLQLHGHEAPFRVK(COCH2)V; thioether 2-19 (inferred)) [compound 158]
C (0.1 or more and less than 0.5) | 159 (HCSYERLQIHGHEAPFRVK(COCH2)V; thioether 2-19 (inferred)) [compound 159]
C (0.1 or more and less than 0.5) | 160 (HCSYERLQVHGHEAPFRVK(COCH2)V; thioether 2-19 (inferred)) [compound 160]
C (0.1 or more and less than 0.5) | 161 (HCSYERLQYHGHEAPFRVK(COCH2)V; thioether 2-19 (inferred)) [compound 161]
B (0.5 or more and less than 0.7) | 162 (HCSYERLQWHGHEAPFRVK(COCH2)V; thioether 2-19 (inferred)) [compound 162]
C (0.1 or more and less than 0.5) | 163 (HCSYERLQFGGHEAPFRVK(COCH2)V; thioether 2-19 (inferred)) [compound 163]
A (0.7 or more) | 164 (HCSYERLQFLGHEAPFRVK(COCH2)V; thioether 2-19 (inferred)) [compound 164]
A (0.7 or more) | 165 (HCSYERLQFIGHEAPFRVK(COCH2)V; thioether 2-19 (inferred)) [compound 165]
A (0.7 or more) | 166 (HCSYERLQFVGHEAPFRVK(COCH2)V; thioether 2-19 (inferred)) [compound 166]
A (0.7 or more) | 167 (HCSYERLQFFGHEAPFRVK(COCH2)V; thioether 2-19 (inferred)) [compound 167]
A (0.7 or more) | 168 (HCSYERLQFYGHEAPFRVK(COCH2)V; thioether 2-19 (inferred)) [compound 168]
A (0.7 or more) | 169 (HCSYERLQFWGHEAPFRVK(COCH2)V; thioether 2-19 (inferred)) [compound 169]
B (0.5 or more and less than 0.7) | 170 (HCSYERLQFNGHEAPFRVK(COCH2)V; thioether 2-19 (inferred)) [compound 170]
A (0.7 or more) | 171 (HCSYERLQFQGHEAPFRVK(COCH2)V; thioether 2-19 (inferred)) [compound 171]
